Usually IC50 stands for the concentration needed to halve the response being measured. The low end stands for greater potency in that assay, the high end for weaker potency in that assay.

Chain of NLRP3 (Q96P20 whole entry): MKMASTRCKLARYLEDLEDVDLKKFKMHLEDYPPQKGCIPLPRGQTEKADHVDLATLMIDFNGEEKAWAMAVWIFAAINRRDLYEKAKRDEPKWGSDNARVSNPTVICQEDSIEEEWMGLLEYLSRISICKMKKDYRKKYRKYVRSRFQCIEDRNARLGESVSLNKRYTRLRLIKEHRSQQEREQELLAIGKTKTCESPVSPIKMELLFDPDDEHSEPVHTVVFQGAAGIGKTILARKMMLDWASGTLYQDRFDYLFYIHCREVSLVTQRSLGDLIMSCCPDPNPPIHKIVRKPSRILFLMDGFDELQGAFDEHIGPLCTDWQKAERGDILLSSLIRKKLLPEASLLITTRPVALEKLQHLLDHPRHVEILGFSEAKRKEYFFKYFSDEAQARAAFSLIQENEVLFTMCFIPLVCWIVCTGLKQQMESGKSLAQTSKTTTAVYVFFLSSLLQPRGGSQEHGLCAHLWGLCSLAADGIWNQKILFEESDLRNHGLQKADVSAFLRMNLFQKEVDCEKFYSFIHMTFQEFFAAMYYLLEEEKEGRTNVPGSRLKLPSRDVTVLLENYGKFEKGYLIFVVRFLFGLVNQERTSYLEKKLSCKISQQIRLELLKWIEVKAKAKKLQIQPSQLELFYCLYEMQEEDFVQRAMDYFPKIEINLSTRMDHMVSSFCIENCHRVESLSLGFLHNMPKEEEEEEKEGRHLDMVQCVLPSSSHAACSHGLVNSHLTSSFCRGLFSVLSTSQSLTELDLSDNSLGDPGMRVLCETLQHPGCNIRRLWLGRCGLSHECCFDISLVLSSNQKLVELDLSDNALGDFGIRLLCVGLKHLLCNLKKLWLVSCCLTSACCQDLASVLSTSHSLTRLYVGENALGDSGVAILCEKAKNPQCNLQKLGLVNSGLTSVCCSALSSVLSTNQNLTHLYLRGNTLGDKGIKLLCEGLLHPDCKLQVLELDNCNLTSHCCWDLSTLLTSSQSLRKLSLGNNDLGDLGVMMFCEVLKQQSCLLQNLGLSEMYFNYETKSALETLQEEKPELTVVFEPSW

This test concerns the target NLRP3 (Homo sapiens, UniProt Q96P20). The experiment in a line: THP-1 cell-based NLRP3 activation assay. Also on record: endogenous in cells; host or cells: THP-1 cells (PMA-differentiated, LPS-primed, nigericin-stimulated). As to conditions: PMA-differentiated THP-1 cells, LPS 100 ng/mL then 10 μM nigericin. In short, it runs like this:
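THP-1 cells were PMA-differentiated (20 nM, 24 h or 500 nM, 3 h), primed with 100 ng/mL LPS for 3 h, then given compound in Opti-Mem for 30 min before 10 μM nigericin for 1 h. Supernatants assayed; viability of adherent cells by CellTiter-Glo.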
For `CCOc1cc(C(=O)N(C)[C@H](CCN(C)C)c2cccc3cn[nH]c23)ccc1-c1cc(F)cc(F)c1` [Compound 219], the IC50 was under 100 nM.
Then `CCOc1cc(C(=O)N(C)[C@H](CN(C)C)c2cccc3cn[nH]c23)ccc1-c1cccc(Cl)c1` [Compound 220], with 100 to 500 nM; and `CCOc1cc(C(=O)N(C)[C@@H](CN(C)C)c2cccc3cn[nH]c23)ccc1-c1cccc(Cl)c1` [Compound 221], with under 100 nM; and `CCOc1cc(C(=O)N(C)[C@H](CN2CCCC2)c2cccc3cn[nH]c23)ccc1-c1cccc(F)c1` [Compound 222], with 500 to 1000 nM.
Consider `CCOc1cc(C(=O)N(C)[C@@H](CN2CCCC2)c2cccc3cn[nH]c23)ccc1-c1cccc(F)c1` [Compound 223], for which the IC50 is under 100 nM.
Compound `CCOc1cc(C(=S)N(C)[C@H](CCN(C)C)c2cncc3cn[nH]c23)ccc1-c1cccc(F)c1` [Compound 224] returned an IC50 of under 100 nM.
As to `CN(C(=O)c1ccc(-c2cccc(F)c2)c(OC2CC2)c1)[C@H](CCN1CCC1)c1cncc2cn[nH]c12` [Compound 225], the half-inhibitory concentration (IC50) was under 100 nM.
In turn, `CCOc1cc(C(=O)N(C)C(CN(C)C)c2cncc3cn[nH]c23)ccc1-c1ccccc1` (stereo not shown) [Compound 226] had an IC50 of 100 to 500 nM.
`CCOc1cc(C(=O)N(C)[C@H](CC[N+](C)(C)[O-])c2cccc3cn[nH]c23)ccc1-c1cccc(F)c1` [Compound 227] yielded an IC50 of under 100 nM.
With `CCOc1cc(C(=O)N(C)[C@H](CCNC)c2cncc3cn[nH]c23)ccc1-c1cccc(Cl)c1` [Compound 228], the half-maximal inhibitory concentration (IC50) is under 100 nM.
`CCOc1cc(C(=O)N(C)[C@H](CCN(C)CCOC)c2cncc3cn[nH]c23)ccc1-c1cccc(Cl)c1` [Compound 229] registered an IC50 of under 100 nM.
The compound `CCOc1cc(C(=O)N(C)[C@H](CCN(C)CCO)c2cncc3cn[nH]c23)ccc1-c1cccc(Cl)c1` [Compound 230] showed an IC50 of under 100 nM.
Compound `[2H]C([2H])([2H])NCC[C@H](c1cncc2cn[nH]c12)N(C)C(=O)c1ccc(-c2cccc(F)c2)c(OCC)c1` [Compound 231] yielded an IC50 of under 100 nM.
`CCOc1cc(C(=O)N(C)[C@H](CCNC)c2cncc3cn[nH]c23)ccc1-c1cccc(C#N)c1` [Compound 232] showed a concentration for half-maximal inhibition (IC50) of under 100 nM.
As for `CCOc1cc(C(=O)N(C)[C@H](CCNC)c2cccc3cn[nH]c23)ccc1-c1cccc(Cl)c1` [Compound 233], the IC50 is under 100 nM.
As for `CCOc1cc(C(=O)N(Cc2cncc3cn[nH]c23)[C@H]2C[C@@H](NC)C2)ccc1-c1cccc(F)c1` [Compound 234], the figure is 1000 to 15000 nM; as for `CCOc1cc(C(=O)N(Cc2cncc3cn[nH]c23)C2CC(NC)C2)ccc1-c1cccc(F)c1` (stereo not shown) [Compound 235], 100 to 500 nM; as for `CCOc1cc(C(=O)N(Cc2cncc3cn[nH]c23)C2CC(NC)C2)ccc1-c1cccc(Cl)c1` (stereo not shown) [Compound 236], under 100 nM.
As for `CCOc1cc(C(=O)N(Cc2cncc3cn[nH]c23)C2CC(NC)C2)ccc1-c1ccccc1` (stereo not shown) [Compound 237], the figure is 1000 to 15000 nM.
Turning to `CCOc1cc(C(=O)N(Cc2cncc3cn[nH]c23)[C@H]2C[C@@H](NC)C2)ccc1-c1cccc(Cl)c1` [Compound 238], the IC50 was under 100 nM.
For `CCOc1cc(C(=O)N(Cc2cncc3cn[nH]c23)[C@H]2C[C@@H](NC)C2)ccc1-c1ccccc1` [Compound 239], the IC50 is under 100 nM.
The compound `CCOc1cc(C(=O)N(Cc2cncc3cn[nH]c23)C2CC(N(C)C)C2)ccc1-c1cccc(F)c1` (stereo not shown) [Compound 240] displayed an IC50 of 500 to 1000 nM.
As for `CCOc1cc(C(=O)N(C)C(c2cccc3cn[nH]c23)C2CN(C)C2)ccc1-c1cccc(Cl)c1` (stereo not shown) [Compound 241], the figure is under 100 nM; as for `CCOc1cc(C(=O)N(Cc2cncc3cn[nH]c23)C2CC(N(C)C)C2)ccc1-c1cccc(Cl)c1` (stereo not shown) [Compound 242], 100 to 500 nM; as for `CCOc1cc(C(=O)N(Cc2cncc3cn[nH]c23)C2CC(N(C)C)C2)ccc1-c1ccccc1` (stereo not shown) [Compound 243], 1000 to 15000 nM.
Then `CCOc1cc(C(=O)N(Cc2cncc3cn[nH]c23)[C@H]2C[C@@H](N(C)C)C2)ccc1-c1cccc(F)c1` [Compound 244], with under 100 nM.
For `CCOc1cc(C(=O)N(Cc2cncc3cn[nH]c23)[C@H]2C[C@@H](N(C)C)C2)ccc1-c1ccccc1` [Compound 245], the IC50 was under 100 nM.
In turn, `CCOc1cc(C(=O)N(C)C(CN2CC(O)C2)c2cncc3cn[nH]c23)ccc1-c1cccc(F)c1` (stereo not shown) [Compound 246] yielded an IC50 of under 100 nM.
In turn, `CCOc1cc(C(=O)N(C)C(CN2CCC(O)C2)c2cncc3cn[nH]c23)ccc1-c1cccc(F)c1` (stereo not shown) [Compound 247] had an IC50 of under 100 nM.
Turning to `CCOc1cc(C(=O)N(Cc2cncc3cn[nH]c23)[C@H]2C[C@@H](CN)C2)ccc1-c1cccc(F)c1` [Compound 248], the IC50 was under 100 nM.
Compound `CCOc1cc(C(=O)N(Cc2cncc3cn[nH]c23)[C@H]2C[C@@H](CN(C)C)C2)ccc1-c1cccc(F)c1` [Compound 249] returned an IC50 of under 100 nM.
With `CCOc1cc(C(=O)N(Cc2cccc3cn[nH]c23)[C@H]2C[C@@H](N)C2)ccc1-c1cccc(F)c1` [Compound 250], the IC50 was under 100 nM.
In the case of `CCOc1cc(C(=O)N(Cc2cccc3cn[nH]c23)[C@H]2C[C@@H](N(C)C)C2)ccc1-c1cccc(F)c1` [Compound 251], the IC50 was under 100 nM.
For the compound `CCOc1cc(C(=O)N(Cc2cccc3cn[nH]c23)[C@H]2C[C@@H](NC)C2)ccc1-c1cccc(F)c1` [Compound 252], the IC50 is under 100 nM.
Regarding `CCOc1cc(C(=O)N(Cc2cncc3cn[nH]c23)[C@H]2C[C@@H](N(C)C)C2)ccc1-c1cccc(Cl)c1` [Compound 253], the IC50 is under 100 nM.
Turning to `CCOc1cc(C(=O)N(C)[C@H](CC[N+](C)([O-])CC)c2cncc3cn[nH]c23)ccc1-c1cccc(Cl)c1` (stereo partly shown) [Compound 254], the IC50 is under 100 nM.
In turn, `CCOc1cc(C(=O)N(C)[C@H](CC[N+]([O-])(CC)CC)c2cncc3cn[nH]c23)ccc1-c1cccc(Cl)c1` [Compound 255] yielded an IC50 of under 100 nM.
Turning to `CCOc1cc(C(=O)N(C)[C@H](CN(C)C)c2cccc3cn[nH]c23)ccc1-c1cccc(F)c1` [Compound 256], the IC50 fell in the range of 100 to 500 nM.
As for `CCOc1cc(C(=O)N(C)[C@@H](CN(C)C)c2cccc3cn[nH]c23)ccc1-c1cccc(F)c1` [Compound 257], the figure is under 100 nM; as for `CCOc1cc(C(=O)N(C)C(CN(C)CC)c2cccc3cn[nH]c23)ccc1-c1cccc(F)c1` (stereo not shown) [Compound 258], 100 to 500 nM; as for `CCOc1cc(C(=O)N(C)[C@@H](CN(C)CC)c2cccc3cn[nH]c23)ccc1-c1cccc(F)c1` [Compound 259], under 100 nM.
In the case of `CCOc1cc(C(=O)N(C)[C@H](CN(CC)CC)c2cccc3cn[nH]c23)ccc1-c1cccc(F)c1` [Compound 260], the IC50 fell in the range of 1000 to 15000 nM.
The compound `CCOc1cc(C(=O)N(C)C(CN(CC)CC)c2cccc3cn[nH]c23)ccc1-c1cccc(F)c1` (stereo not shown) [Compound 261] gave an IC50 of under 100 nM.
As for `CCOc1cc(C(=O)N(C)[C@H](CCN(C)CCO)c2cncc3cn[nH]c23)ccc1-c1cccc(F)c1` [Compound 262], the figure is under 100 nM; as for `CCOc1cc(C(=O)N(C)[C@H](CCN(C)CCOC)c2cncc3cn[nH]c23)ccc1-c1cccc(F)c1` [Compound 263], under 100 nM.
The compound `CCOc1cc(C(=O)N(C)C(CN2CCC2)c2cccc3cn[nH]c23)ccc1-c1cccc(F)c1` (stereo not shown) [Compound 264] had a 50% inhibitory concentration (IC50) of under 100 nM.
As for `CCOc1cc(C(=O)N(Cc2cccc3cn[nH]c23)[C@H]2C[C@@H](NC)C2)ccc1-c1cccc(C#N)c1` [Compound 265], the figure is under 100 nM; as for `CCOc1cc(C(=O)N(Cc2ccc(C)c3cn[nH]c23)[C@H]2C[C@@H](NC)C2)ccc1-c1cccc(F)c1` [Compound 266], under 100 nM.
`CCOc1cc(C(=O)N(C)[C@H](c2c[nH]cn2)c2cncc3cn[nH]c23)ccc1-c1cccc(F)c1` [Compound 267]: the IC50 was 100 to 500 nM.
Consider `CCOc1cc(C(=O)N(Cc2cnc(C)c3cn[nH]c23)[C@H]2C[C@@H](NC)C2)ccc1-c1cccc(Cl)c1` [Compound 277], for which the IC50 was under 100 nM.
Then `CCOc1cc(C(=O)N(Cc2cnc(C)c3cn[nH]c23)[C@H]2C[C@@H](NC)C2)ccc1-c1cccc(F)c1` [Compound 278], with under 100 nM.
Take `CCOc1cc(C(=O)N(C)[C@H](CCN(C)C)c2cncc3cn[nH]c23)ccc1-c1cc(F)cc(C#N)c1` [Compound 279]: the IC50 is under 100 nM.
Turning to `CCOc1cc(C(=O)N(C)[C@H](CCNC)c2cncc3cn[nH]c23)ccc1-c1cc(F)cc(C#N)c1` [Compound 280], the IC50 was under 100 nM.
As to `CN(C(=O)c1ccc(-c2cccc(Cl)c2)c(OC2CC2)c1)[C@H](CCN1CCC1)c1cncc2cn[nH]c12` [Compound 281], the IC50 lay in the range of 1000 to 15000 nM.
For `CCOc1cc(C(=O)N(C)[C@@H](c2cccc3cn[nH]c23)C2CN(C)C2)ccc1-c1cccc(Cl)c1` [Compound 282], the IC50 was under 100 nM.
Regarding `CCOc1cc(C(=O)N(C)[C@H](c2cccc3cn[nH]c23)C2CN(C)C2)ccc1-c1cccc(Cl)c1` [Compound 283], the IC50 is under 100 nM.
`CCOc1cc(C(=O)N(Cc2ccc(C)c3cn[nH]c23)[C@H]2C[C@@H](N(C)C)C2)ccc1-c1cccc(Cl)c1` [Compound 285] had an IC50 of under 100 nM.
The compound `CCOc1cc(C(=O)N(Cc2ccc(C)c3cn[nH]c23)[C@H]2C[C@@H](NC)C2)ccc1-c1cccc(Cl)c1` [Compound 286] returned an IC50 of under 100 nM.
On to `CCOc1cc(C(=O)N(Cc2cncc3cn[nH]c23)[C@H]2CC[C@@H]2N)ccc1-c1cccc(Cl)c1` [Compound 287], for which the IC50 fell in the range of 500 to 1000 nM.
Consider `CCOc1cc(C(=O)N(Cc2cncc3cn[nH]c23)[C@H]2CC[C@@H]2N(C)C)ccc1-c1cccc(Cl)c1` [Compound 288], for which the IC50 fell in the range of 100 to 500 nM.
Then `CCOc1cc(C(=O)N(Cc2cncc3cn[nH]c23)[C@H]2C[C@@H](N)C2)ccc1-c1cccc(C#N)c1` [Compound 289], with under 100 nM.

The record behind these values is US12509459B2, “Inhibitors of NLRP3 inflammasome” (BioAge Labs, Inc., priority 2024, dated 2025).
